The subject of the experiment is Jurkat cells. The experiment can be described thus: Jurkat cell apoptosis induced by staurosporine (STS) treatment, imaged by light-field flow cytometry (LFC). It counts as cell-based, human. The settings on record: 1-μM STS.

Description: Jurkat cell apoptosis induced by staurosporine (STS) treatment and staining. Jurkat T cells (e.g., #88042803, Sigma-Aldrich) were cultured in RPMI with 10% FBS and 1% Pen-Strep as a modified RPMI medium at 37° C. and in a 5% CO2 environment. On the imaging day, 1 μM of STS was added to 4 cell dishes, incubating for 30, 60, 120, and 300 min, respectively, at 37° C. The following procedures for preparing cells in the 4 dishes were the same. After the treatment, cells were centrifuged (e.g., 500× g, 6 min, 37° C.) and resuspended into the modified RPMI medium. After two rounds of centrifuge-washing, cells were resuspended into 6 mL of modified RPMI medium. For fluorescence labeling, 250 nM of SYTO16 green stains were added to the culture dish, and the cells were incubated for 1 hour. At the halfway of incubation (30 min), 150 nM of Mito Tracker Deep Red FM stains were added to the culture dish. After another 30 min, cells were centrifuged (e.g., 500× g, 6 min, 37° C.) and resuspended into 6 mL of the 4% PFA fixation buffer. Cells were fixed at room temperature for 12 min. After fixation, cells were centrifuged (800× g, 6 min, room temperature) and resuspended into PBS twice. Finally, cells were stored in PBS for imaging flow cytometry.
Imaging morphological changes in staurosporine-treated Jurkat cells. […]

As to `CN[C@@H]1C[C@H]2O[C@@](C)([C@@H]1OC)n1c3ccccc3c3c4c(c5c6ccccc6n2c5c31)C(=O)NC4` [Staurosporine], where the note is “after 5 h of treatment”, the “cells showed apoptotic nuclei” value was “over 53%”. Moreover, the “Jurkat cell nuclear morphology” value (with the treatment period increased (30, 60, 120, 300 min)) is “reduced volumes and fragmented micronuclei”.
